In publication PMC8279417 (Journal of Medicinal Chemistry, 2021):
Like-named read-outs stand apart in the source and are kept apart here.

How the values were obtained:
ERα [1] = biological target: T1, ERα (Homo sapiens, UniProt P03372); details: for IC50: read-out: TR-FRET ERα IC50, displacement of fluorescent-labeled E2 from the LBD of ERα; for RBA ERα: relative binding affinity compared to E2 (100%)
T1 sequence (P03372 311-547 limits assumed): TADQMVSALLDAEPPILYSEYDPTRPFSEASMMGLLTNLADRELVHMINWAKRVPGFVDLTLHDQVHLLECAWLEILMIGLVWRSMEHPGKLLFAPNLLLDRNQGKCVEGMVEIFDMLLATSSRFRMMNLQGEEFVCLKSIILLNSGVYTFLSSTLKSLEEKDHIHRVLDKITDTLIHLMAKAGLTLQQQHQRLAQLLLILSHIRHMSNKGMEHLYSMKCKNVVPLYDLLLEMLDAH
Experimental: (§1) LanthaScreen TR-FRET ER alpha/beta competitive binding assays (Invitrogen, Carlsbad) were used to investigate the binding affinity to the isolated receptors according to the manufacturer′s protocols. Measurement was performed with an Enspire multimode plate reader (PerkinElmer Life Sciences, Waltham). Calculations were performed with Excel (Microsoft, Redmond) and GraphPad Prism (GraphPad Software, San Diego).

ERβ [2] = biological target: T2, ERβ (Homo sapiens, UniProt Q92731); details: for IC50: read-out: TR-FRET ERβ IC50, displacement of fluorescent-labeled E2 from the LBD of ERβ; for RBA ERβ: relative binding affinity compared to E2 (100%)
Target sequence in this assay (Q92731 264-498 limits assumed): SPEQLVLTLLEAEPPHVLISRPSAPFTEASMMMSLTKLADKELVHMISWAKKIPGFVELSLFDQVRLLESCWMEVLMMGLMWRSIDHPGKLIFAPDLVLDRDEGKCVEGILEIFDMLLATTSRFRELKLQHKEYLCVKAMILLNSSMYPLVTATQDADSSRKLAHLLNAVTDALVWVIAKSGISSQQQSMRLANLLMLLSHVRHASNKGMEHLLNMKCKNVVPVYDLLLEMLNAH
Experimental: as §1

ERβ [3] = biological target: T2, ERβ; experiment: Luciferase reporter gene assay (transactivation), U2OS cells transfected with pSG5-ERβ; assay type: cell-based; details: inhibition of E2-induced (0.3 nM) transactivation
Target sequence in this assay (Q92731 whole entry, the tested form may be a part): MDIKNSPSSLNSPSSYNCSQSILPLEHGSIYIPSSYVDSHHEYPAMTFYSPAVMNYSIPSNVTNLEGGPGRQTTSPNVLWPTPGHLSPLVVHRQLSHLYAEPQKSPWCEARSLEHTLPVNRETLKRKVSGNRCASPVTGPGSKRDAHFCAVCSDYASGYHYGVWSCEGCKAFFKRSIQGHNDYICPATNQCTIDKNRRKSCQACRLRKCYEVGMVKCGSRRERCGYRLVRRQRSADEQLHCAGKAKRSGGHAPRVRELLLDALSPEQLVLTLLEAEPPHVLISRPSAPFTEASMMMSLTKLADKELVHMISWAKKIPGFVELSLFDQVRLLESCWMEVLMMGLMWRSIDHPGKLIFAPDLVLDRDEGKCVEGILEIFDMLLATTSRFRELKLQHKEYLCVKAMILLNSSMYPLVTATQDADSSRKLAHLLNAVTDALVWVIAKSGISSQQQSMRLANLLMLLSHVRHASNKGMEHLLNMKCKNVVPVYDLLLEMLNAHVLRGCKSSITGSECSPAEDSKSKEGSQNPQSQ

ERα [4] = biological target: T3, ERα (Homo sapiens, UniProt P03372); experiment: Luciferase reporter gene assay (transactivation), U2OS cells transfected with pSG5-ERα; assay type: cell-based; details: inhibition of E2-induced (0.03 nM) transactivation
T3 sequence (P03372 1-595): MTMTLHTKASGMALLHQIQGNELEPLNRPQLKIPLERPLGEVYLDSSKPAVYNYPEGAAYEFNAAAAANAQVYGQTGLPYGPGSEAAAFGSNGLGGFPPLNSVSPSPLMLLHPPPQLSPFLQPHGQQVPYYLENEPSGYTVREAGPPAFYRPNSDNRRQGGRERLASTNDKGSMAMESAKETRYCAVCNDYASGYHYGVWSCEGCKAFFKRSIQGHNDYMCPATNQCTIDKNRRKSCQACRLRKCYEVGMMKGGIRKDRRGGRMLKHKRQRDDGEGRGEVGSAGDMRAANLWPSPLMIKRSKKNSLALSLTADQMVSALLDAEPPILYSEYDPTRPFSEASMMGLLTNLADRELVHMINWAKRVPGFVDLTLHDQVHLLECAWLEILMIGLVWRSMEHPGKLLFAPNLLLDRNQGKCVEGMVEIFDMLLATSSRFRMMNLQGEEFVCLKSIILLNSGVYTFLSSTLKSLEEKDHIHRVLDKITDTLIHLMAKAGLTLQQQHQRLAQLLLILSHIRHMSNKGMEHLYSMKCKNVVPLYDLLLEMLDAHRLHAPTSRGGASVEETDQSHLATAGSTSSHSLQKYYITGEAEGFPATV

ERα [5] = biological target: T3, ERα; experiment: In-Cell Western immunoassay, ERα levels in MCF-7 cells; assay type: cell-based; details: for % ERα remaining [1 μM]: MCF-7 cells, 24 h, compared to the solvent control (DMSO)
Experimental: Degradation was evaluated with the CellTagTM 700 In-Cell Western kit (LI-COR, Lincoln) according to the manufacturer’s protocol. MCF-7 cells were treated, and calculation was performed as previously described.[24]

ERα [6] = biological target: T1, ERα; experiment: TR-FRET coactivator (PGC-1 peptide) recruitment assay, ERα LBD; assay type: biochemical; details: E2 4 nM; for IC50: read-out: inhibition of coactivator recruitment IC50, ERα
Experimental: drug concentrations: 5 nM to 3 μM) after an incubation time of 10 or 30 min.
Coactivator recruitment was tested using the LanthaScreen® TR-FRET ERα coactivator assay. The binding
of the fluorescein-labeled PGC1a coactivator peptide to the ERα LBD protein labeled with terbium was

ERβ [7] = biological target: T2, ERβ; details: E2 34 nM, incubation time 30 min; for IC50: read-out: inhibition of coactivator recruitment IC50, ERβ
Target sequence in this assay (Q92731 whole entry, the tested form may be a part): as the sequence (Q92731 whole entry, the tested form may be a part) above

MCF-7TamR cells = experiment: Crystal violet assay, MCF-7TamR cells; assay type: cell-based
MCF-7 cells = experiment: Crystal violet assay, MCF-7 cells; assay type: cell-based; details: for time to cytocidal effects, MCF-7: time-dependent experiment
MDA-MB-231 cells = experiment: Crystal violet assay, MDA-MB-231 cells; assay type: cell-based
[8] = MCF7, read-out: % efficacy [1 μM], downregulation of ERα compared to fulvestrant (100%), MCF-7, 1 μM

SMILES | IC50 (ERα [1]) [nM] | RBA ERα (ERα [1]) [%] | IC50 (ERβ [2]) [nM] | RBA ERβ (ERβ [2]) [%] | IC50 (ERβ [3]) [nM] | IC50 (ERα [4]) [nM] | % ERα remaining [1 μM] (ERα [5]) [%] | other results
CCC(=C(c1ccc(O)cc1)c1ccc(/C=C/C(=O)NCCCNC(=O)c2ccc(N3CCN(C(=O)CCCCCCCn4c(=S)[nH]c5ccccc5c4=O)CC3)cc2)cc1)c1ccccc1 (mixture of isomers) [Compound 18] | 4.23 ± 1.12 | 7.8 | 6.81 ± 1.86 | 10.9 | 157 ± 22 | 914 ± 50 |  | Emax at 1 µM (ERα [5]; [8]): 64%
CCC(=C(c1ccc(O)cc1)c1ccc(/C=C/C(=O)NCCNC(=O)CCc2nc3cc(OC)ccc3[nH]2)cc1)c1ccccc1 (mixture of isomers) [Compound 31, (E)-3-[4-((E/Z)-1-(4-Hydroxyphenyl)-2-phenylbut-1-enyl)phenyl]-N-[2-(3-(5-methoxy-1H-benzo[d]imidazol-2-yl)propanamido)ethyl]acrylamide] |  | 12 | 4.88 ± 2.65 | 15.2 | 6.7 ± 2.7 |  | 113.8 ± 4.3 | 
CCC(=C(c1ccc(O)cc1)c1ccc(/C=C/C(=O)NCCCNC(=O)CCc2nc3ccc(OC)cc3[nH]2)cc1)c1ccccc1 (mixture of isomers) [Compound 32, (E)-3-[4-((E/Z)-1-(4-Hydroxyphenyl)-2-phenylbut-1-enyl)phenyl]-N-[3-(3-(5-methoxy-1H-benzo[d]imidazol-2-yl)propanamido)propyl]acrylamide] | 4.11 ± 1.88 | 8 | 3.01 ± 4 | 24.7 | 26.9 ± 5.7 | 21.5 ± 10.7 | 120.3 ± 31.6 | 
CCC(=C(c1ccc(O)cc1)c1ccc(/C=C/C(=O)NCCCCNC(=O)CCc2nc3cc(OC)ccc3[nH]2)cc1)c1ccccc1 (mixture of isomers) [Compound 34, (E)-3-[4-((E/Z)-1-(4-Hydroxyphenyl)-2-phenylbut-1-enyl)phenyl]-N-[4-(3-(5-methoxy-1H-benzo[d]imidazol-2-yl)propanamido)butyl]acrylamide] | 2.22 ± 0.76 | 14.9 |  |  |  | 34.5 ± 3.5 | 132.9 ± 14.1 | 
CCC(=C(c1ccc(O)cc1)c1ccc(/C=C/C(=O)NCCCCCNC(=O)CCc2nc3ccc(OC)cc3[nH]2)cc1)c1ccccc1 (mixture of isomers) [Compound 36, (E)-3-[4-((E/Z)-1-(4-Hydroxyphenyl)-2-phenylbut-1-enyl)phenyl]-N-[5-(3-(5-methoxy-1H-benzo[d]imidazol-2-yl)propanamido)pentyl]acrylamide] | 1.56 ± 0.63 | 21.1 | 7.84 ± 0.25 | 9.5 | 8.9 ± 4 | 9.2 ± 3.2 | 130.0 ± 15.1 | IC50 (ERα [6]; incubation time 10 min): 36.3 nM; IC50 (ERα [6]; incubation time 30 min): 153 nM; IC50 (ERβ [7]): 154 nM
CCC(=C(c1ccc(O)cc1)c1ccc(/C=C/C(=O)NCCCCCCNC(=O)CCc2nc3cc(OC)ccc3[nH]2)cc1)c1ccccc1 (mixture of isomers) [Compound 38, (E)-3-[4-((E/Z)-1-(4-Hydroxyphenyl)-2-phenylbut-1-enyl)phenyl]-N-[6-(3-(5-methoxy-1H-benzo[d]imidazol-2-yl)propanamido)hexyl]acrylamide] | 2.61 ± 2.25 | 12.6 | 5.22 ± 0.65 | 14.3 | 9 ± 3.3 | 9.4 ± 2.7 | 101.8 ± 1.9 | T/Ccorr MCF-7TamR (MCF-7TamR cells): about 40%
CCC(=C(c1ccc(O)cc1)c1ccc(/C=C/C(=O)NCCNC(=O)CCc2nc3cc(O)ccc3[nH]2)cc1)c1ccccc1 (mixture of isomers) [Compound 39, (E)-N-[2-(3-(5-Hydroxy-1H-benzo[d]imidazol-2-yl)propanamido)ethyl]-3-[4-((E/Z)-1-(4-hydroxyphenyl)-2-phenylbut-1-enyl)phenyl]acrylamide] | 1.45 ± 0.37 | 22.8 |  |  |  | 26 ± 6.6 | 99.2 ± 3.5 | Emax at 1 µM (ERα [5]; [8]): 1%
CCC(=C(c1ccc(O)cc1)c1ccc(/C=C/C(=O)NCCCNC(=O)CCc2nc3cc(O)ccc3[nH]2)cc1)c1ccccc1 (mixture of isomers) [Compound 40, (E)-N-[3-(3-(5-Hydroxy-1H-benzo[d]imidazol-2-yl)propanamido)propyl]-3-[4-((E/Z)-1-(4-hydroxyphenyl)-2-phenylbut-1-enyl)phenyl]acrylamide] |  |  | 3.78 ± 1.54 | 19.7 | 18.7 ± 8.3 |  |  | 
CCC(=C(c1ccc(O)cc1)c1ccc(/C=C/C(=O)NCCCCNC(=O)CCc2nc3cc(O)ccc3[nH]2)cc1)c1ccccc1 (mixture of isomers) [Compound 41, (E)-N-[4-(3-(5-Hydroxy-1H-benzo[d]imidazol-2-yl)propanamido)butyl]-3-[4-((E/Z)-1-(4-hydroxyphenyl)-2-phenylbut-1-enyl)phenyl]acrylamide] |  |  | 2.84 ± 1.31 | 26.2 | 15.9 ± 1.7 |  |  | 
CCC(=C(c1ccc(O)cc1)c1ccc(/C=C/C(=O)NCCCCCNC(=O)CCc2nc3cc(O)ccc3[nH]2)cc1)c1ccccc1 (mixture of isomers) [Compound 42, (E)-N-[5-(3-(5-Hydroxy-1H-benzo[d]imidazol-2-yl)propanamido)pentyl]-3-[4-((E/Z)-1-(4-hydroxyphenyl)-2-phenylbut-1-enyl)phenyl]acrylamide] | 1.28 ± 0.58 | 25.7 | 3.81 ± 2.35 | 19.5 | 46.5 ± 20.7 | 30.9 ± 8.7 | 92.0 ± 5.5 | IC50 (ERα [6]; incubation time 10 min): 23.3 nM; IC50 (ERβ [7]): 64 nM; Emax at 1 µM (ERα [5]; [8]): 8%
CCC(=C(c1ccc(O)cc1)c1ccc(/C=C/C(=O)NCCCCCCNC(=O)CCc2nc3cc(O)ccc3[nH]2)cc1)c1ccccc1 (mixture of isomers) [Compound 43, (E)-N-[6-(3-(5-Hydroxy-1H-benzo[d]imidazol-2-yl)propanamido)hexyl]-3-[4-((E/Z)-1-(4-hydroxyphenyl)-2-phenylbut-1-enyl)phenyl]acrylamide] |  |  | 7.8 ± 2.3 | 9.5 | 16.1 ± 7 |  |  | 
CCC(=C(c1ccc(O)cc1)c1ccc(/C=C/C(=O)O)cc1)c1ccccc1 (mixture of isomers) [GW7604, (E/Z)-3-(4-((E)-1-(4-Hydroxyphenyl)-2-phenylbut-1-enyl)phenyl)acrylic acid, reference compound] |  |  |  | 27.1 |  |  | 44.3 ± 12.1 | reduction of PGC-1 binding at ERα (ERα [6]; 1 μM, after 10 min of incubation): completely reduced; coactivator binding (ERα [6]; 5 μM, after 30 min, ERα): 45%; T/Ccorr MCF-7TamR (MCF-7TamR cells): 68%; repression of PGC1 binding at ERβ (ERβ [7]; 3 μM): complete repression; Emax at 1 µM (ERα [5]; MCF7, read-out: % efficacy [1 μM]): 56%
CC/C(=C(\c1ccc(O)cc1)c1ccc(OCCN(C)C)cc1)c1ccccc1 [4-OHT, (Z)-4-hydroxytamoxifen] |  |  |  |  |  |  |  | T/Ccorr MCF-7 (MCF-7 cells; 10 μM, 120 h): −55%; time to cytocidal effects, MCF-7 (MCF-7 cells; 10 μM): 48 h; time to cytocidal effects, MCF-7 (MCF-7 cells; 20 μM): 24 h; T/Ccorr MCF-7TamR (MCF-7TamR cells; 10 μM, 120 h): −57%; T/Ccorr MDA-MB-231 (MDA-MB-231 cells; 10 μM, 120 h): 10%; time to cytocidal effects, MDA-MB-231 (MDA-MB-231 cells; 20 μM, time-dependent experiment): 24 h
C[C@]12CC[C@@H]3c4ccc(O)cc4C[C@@H](CCCCCCCCC[S+]([O-])CCCC(F)(F)C(F)(F)F)[C@H]3[C@@H]1CC[C@@H]2O (stereo partly shown) [fulvestrant, reference compound] |  |  |  | 10.0 |  |  |  | 
